Literature values in patent US20090197952A1, “Glyceride Esters for the Treatment of Diseases Associated with Reduced Neuronal Metabolism of Glucose” (priority 2006, published 2009).

What was measured:
patients = conditions: infused at 8-9.3 g/Kg body weight/day to affect hyperketonemia
rats [1] = conditions: rat, in vivo
mice = conditions: direct administration
rat = rat feeding studies
rats [2] = conditions: infusion

Compound: bisacetoacetin
- detrimental side effects (patients): No detrimental side effects

Compound: CC(=O)CC(=O)OCC(COC(=O)CC(C)=O)OC(=O)CC(C)=O [triacetoacetin]
- tolerated amount (rats [1]): 10 g/Kg body weight/day

Compound: CC(O)CC(=O)O (stereo not drawn) [3-hydroxybutyrate]
- protection against neurotoxin (mice): can protect mice against a neurotoxin

Compound: CC(O)CC(=O)OCC(O)CO (racemic) [1-(DL-3-hydroxybutyryl)-glycerol]
- acute toxicity (rat): not acutely toxic
- chronic toxicity (rat): did not show any indication of chronic toxicity

Compound: CC(O)CC(=O)OCC(COC(=O)CC(C)O)OC(=O)CC(C)O (racemic) [DL-tris-(3-hydroxybutyrl)-glycerol]
- acute toxicity (rat): not acutely toxic
- chronic toxicity (rat): did not show any indication of chronic toxicity

Compound: CC(=O)CC(=O)OCC(O)CO (stereo not drawn) [monoacetoacetin]
- detrimental side effects (rats [2]; elevated levels of ketone bodies achieved): without any detrimental side effects
- rate at which it could be safely infused (rats [2]; level equivalent to 2/3 of the rat's daily caloric requirement): at least 50 g/kg body weight/day
